The source of these data is article PMC7587356, “High-Throughput Screening for Inhibitors of the SARS-CoV-2 Protease Using a FRET-Biosensor” (Molecules, 2020).

For this assay, the target named is SARS-CoV-2 3CLpro (Severe acute respiratory syndrome coronavirus 2, UniProt P0DTD1). Put plainly: biochemical. Further details: Replicate_1 / Replicate_2 / mean / mean (LOPAC_screen_w_protease): unit not given here. The following applies: for inhibition at 5 µM: 4 h. In kind it is biochemical.
Setting [1] is: LOPAC1280 primary screen with protease, 5 µM compound, replicate 1, read-out: Replicate_1 (LOPAC_screen_w_protease).
[2] abbreviates: LOPAC1280 primary screen with protease, 5 µM compound, replicate 2, read-out: Replicate_2 (LOPAC_screen_w_protease).
[3] abbreviates: LOPAC1280 primary screen with protease, 5 µM compound, mean of two replicates.
Setting [4] is: sheet LOPAC_screen_w_protease, primary screen with protease, compound at 5 µM, mean of two replicates, read-out: mean.
Where [5] appears, read: sheet LOPAC_screen_w_protease, primary screen with protease, compound at 5 µM, replicate 1, read-out: Replicate_1.
Where [6] appears, read: sheet LOPAC_screen_w_protease, primary screen with protease, compound at 5 µM, replicate 2, read-out: Replicate_2.
Setting [7] is: read-out: Replicate_1 (LOPAC_screen_w_protease).
Where [8] appears, read: read-out: Replicate_2 (LOPAC_screen_w_protease).
Where [9] appears, read: sheet LOPAC_screen_w_protease, primary screen with protease, mean of two replicates, read-out: mean.
Setting [10] is: sheet LOPAC_screen_w_protease, primary screen with protease, replicate 1, read-out: Replicate_1.
[11] abbreviates: sheet LOPAC_screen_w_protease, primary screen with protease, replicate 2, read-out: Replicate_2.
Where [12] appears, read: LOPAC1280 primary screen with protease, 5 µM compound, mean of the two replicates.
Setting [13] is: sheet LOPAC_screen_w_protease, primary screen at 5 µM, mean of two replicates.
The mark [14] stands for this setting: sheet LOPAC_screen_w_protease, primary screen at 5 µM, replicate 1.
Setting [15] is: sheet LOPAC_screen_w_protease, primary screen at 5 µM, replicate 2.
Setting [16] is: sheet LOPAC_screen_w_protease, LOPAC1280 primary screen with protease, 5 µM compound, mean of the two replicates.
[17] abbreviates: sheet LOPAC_screen_w_protease, LOPAC1280 primary screen with protease, 5 µM compound, replicate 1.
[18] abbreviates: sheet LOPAC_screen_w_protease, LOPAC1280 primary screen with protease, 5 µM compound, replicate 2.
[19] abbreviates: LOPAC1280 primary screen with protease, 5 µM compound, replicate 1.
[20] abbreviates: LOPAC1280 primary screen with protease, 5 µM compound, replicate 2.

Structures can show the parent of a compound that is named as a salt. Where two headings read alike, the source gives them in different places.

Turning to `O=P(O)(O)C(Cl)(Cl)P(=O)(O)O` [Clodronic acid], the inhibition at 5 µM is, setting by setting: under setting [1], 2.04%; under setting [2], 1.36%. Further, the “mean (LOPAC_screen_w_protease)” value under setting [3] is 1.697.
For the molecule `CCOC(=O)C(C)(C)Oc1ccc(Cl)cc1` [Clofibrate], the inhibition at 5 µM turned out to be 2.71% under setting [4], 1.49% under setting [5] and 3.93% under setting [6].
Regarding `Clc1cccc(Cl)c1N=C1NCCN1` [Clonidine hydrochloride], the “mean (LOPAC_screen_w_protease)” value is 1.822. The inhibition at 5 µM under setting [7] was 1.42%. The inhibition at 5 µM under setting [8] amounted to 2.22%.
For `Clc1ccccc1C(c1ccccc1)(c1ccccc1)n1ccnc1` [Clotrimazole], the inhibition at 5 µM runs as follows: (read-out: Replicate_1) 3.08%; (read-out: Replicate_2) 3.07%; (read-out: mean) 3.07%.
Regarding `CN1CCN(C2=Nc3cc(Cl)ccc3Nc3ccccc32)CC1` [Clozapine], the inhibition at 5 µM reads like this: under setting [9], 2.28%; under setting [10], 2.27%; under setting [11], 2.3%.
In the case of `C[C@]12CCC(=O)C=C1CC[C@@H]1[C@@H]2CC[C@@]2(C)[C@H]1CC[C@]2(O)C(=O)CO` [Cortexolone], the inhibition at 5 µM is, setting by setting: (sheet LOPAC_screen_w_protease, LOPAC1280 at 5 µM, mean of two replicates, read-out: mean) 1.01%; (sheet LOPAC_screen_w_protease, LOPAC1280 at 5 µM, replicate 1, read-out: Replicate_1) 2.17%; (sheet LOPAC_screen_w_protease, LOPAC1280 at 5 µM, replicate 2, read-out: Replicate_2) -0.141%.
Turning to `CC(=O)OCC(=O)[C@@]1(O)CC[C@H]2[C@@H]3CCC4=CC(=O)CC[C@]4(C)[C@H]3C(=O)C[C@@]21C` [Cortisone 21-acetate], the inhibition at 5 µM reads like this: under setting [1], 2.66%; under setting [2], 0.881%. In addition, the “mean (LOPAC_screen_w_protease)” value under setting [12] was found to be 1.771.
As to `CN(C)CCC=C1c2ccccc2C=Cc2ccccc21` [Cyclobenzaprine hydrochloride], the “mean (LOPAC_screen_w_protease)” value turned out to be 2.047. In addition, the inhibition at 5 µM under setting [7] came out at 3.03%. The inhibition at 5 µM under setting [8] is 1.06%.
Turning to `O=P1(N(CCCl)CCCl)NCCCO1` (stereo not drawn) [Cyclophosphamide monohydrate], the inhibition at 5 µM is, setting by setting: (read-out: Replicate_1) -1.54%; (read-out: Replicate_2) 3.01%; (read-out: mean) 0.736%.
Take `NS(=O)(=O)c1cc2c(cc1Cl)NC(C1CC3C=CC1C3)NS2(=O)=O` (stereo not drawn) [Cyclothiazide]: the inhibition at 5 µM under setting [4] is 2.93%, the inhibition at 5 µM under setting [5] is 4.25% and the inhibition at 5 µM under setting [6] turned out to be 1.61%.
With `CN1CCC(=C2c3ccccc3C=Cc3ccccc32)CC1` [Cyproheptadine hydrochloride], the inhibition at 5 µM was found to be 4.15% under setting [1] and 0.0977% under setting [2]. Also, the “mean (LOPAC_screen_w_protease)” value under setting [12] is listed as 2.126.
Take `CC(=O)O[C@]1(C(C)=O)CC[C@H]2[C@@H]3C=C(Cl)C4=CC(=O)[C@@H]5C[C@@H]5[C@]4(C)[C@H]3CC[C@@]21C` [Cyproterone acetate]: the inhibition at 5 µM was -0.427% (sheet LOPAC_screen_w_protease, primary screen with protease, 5 µM, mean of two replicates, read-out: mean); 1.58% (sheet LOPAC_screen_w_protease, primary screen with protease, 5 µM, replicate 1, read-out: Replicate_1); -2.43% (sheet LOPAC_screen_w_protease, primary screen with protease, 5 µM, replicate 2, read-out: Replicate_2).
In the case of `NCCSSCCN` [Cystamine dihydrochloride], the inhibition at 5 µM reads like this: (sheet LOPAC_screen_w_protease, primary screen at 5 µM, mean of two replicates, read-out: mean (LOPAC screen with protease)) 14.4%; (sheet LOPAC_screen_w_protease, primary screen at 5 µM, replicate 1, read-out: Replicate_1 (LOPAC screen with protease)) 14.2%; (sheet LOPAC_screen_w_protease, primary screen at 5 µM, replicate 2, read-out: Replicate_2 (LOPAC screen with protease)) 14.5%.
Take `Cl.NCCS` [Cysteamine hydrochloride]: the “mean (LOPAC screen with protease)” value under setting [13] came out at 8.502. Moreover, under setting [14], the “Replicate_1 (LOPAC screen with protease)” value was found to be 9.009. For the same molecule, under setting [15], the “Replicate_2 (LOPAC screen with protease)” value turned out to be 7.996.
`N[C@H](CCCCCP(=O)(O)O)C(=O)O` [D(-)-2-Amino-7-phosphonoheptanoic acid]: the mean (sheet LOPAC_screen_w_protease, primary screen with protease, compound at 5 µM, mean of two replicates) was determined as 3.051. Further, the Replicate_1 (sheet LOPAC_screen_w_protease, primary screen with protease, compound at 5 µM, replicate 1) came to 3.469. In addition, the Replicate_2 (sheet LOPAC_screen_w_protease, primary screen with protease, compound at 5 µM, replicate 2) is given as 2.633.
As for `S=C([S-])OC1CC2CC1C1CCCC21.[K+]` [D-609 potassium], the mean (sheet LOPAC_screen_w_protease, LOPAC1280 primary screen at 5 µM, with protease, mean of two replicates) is given as -1.918. Moreover, the Replicate_1 (sheet LOPAC_screen_w_protease, LOPAC1280 primary screen at 5 µM, with protease, replicate 1) is given as -2.8235. Moreover, the Replicate_2 (sheet LOPAC_screen_w_protease, LOPAC1280 primary screen at 5 µM, with protease, replicate 2) is on record as -1.0122.
As for `N[C@@H]1CON=C1O` [D-Cycloserine], the inhibition at 5 µM amounted to 2.63% under setting [1] and 0.045% under setting [2]. Moreover, under setting [3], the “mean (LOPAC_screen_w_protease)” value is 1.34.
`Clc1ccc(N2C[C@H]3CC[C@@H](C2)N3)nn1` [DBO-83] gave a mean under setting [16] of 6.059. Moreover, the Replicate_1 under setting [17] turned out to be 7.536. This molecule yielded a Replicate_2 under setting [18] of 4.581.
In the case of `CCn1c(=O)[nH]c2cc(Cl)c(Cl)cc21` [DCEBIO], the “mean (LOPAC_screen_w_protease)” value under setting [12] is on record as 1.96. In addition, the “Replicate_1 (LOPAC_screen_w_protease)” value under setting [19] worked out at 3.009. Besides, the “Replicate_2 (LOPAC_screen_w_protease)” value under setting [20] was 0.9113.
Regarding `CCC(=O)N1CCN(C(=O)c2ccccc2)CC1` [DM 235], under setting [3], the “mean (LOPAC_screen_w_protease)” value is given as 1.365. Moreover, the “Replicate_1 (LOPAC_screen_w_protease)” value under setting [19] stood at 0.6823. For the same molecule, the “Replicate_2 (LOPAC_screen_w_protease)” value under setting [20] came to 2.048.
`O=[N+]([O-])c1cc2nc(O)c(O)nc2cc1[N+](=O)[O-]` [DNQX] returned a Replicate_1 of 2.956, a Replicate_2 of 2.135 and a mean of 2.546.
`CCN(CCCl)Cc1ccccc1Br.Cl` [DSP-4 hydrochloride]: under setting [16], the mean worked out at 6.32. The same molecule returned a Replicate_1 under setting [17] of 6.498. Under setting [18], this molecule had a Replicate_2 of 6.142.
Regarding `O=c1c(-c2ccc(O)cc2)coc2cc(O)ccc12` [Daidzein], the inhibition at 5 µM runs as follows: (read-out: Replicate_1) 5.3%; (read-out: Replicate_2) 1.03%; (read-out: mean) 3.16%.
Consider `C#C[C@]1(O)CC[C@H]2[C@@H]3CCC4=Cc5oncc5C[C@]4(C)[C@H]3CC[C@@]21C` [Danazol], for which the inhibition at 5 µM was determined as 2.5% under setting [9], 4.08% under setting [10] and 0.911% under setting [11].
As for `N=C(N)N1CCc2ccccc2C1` [Debrisoquin sulfate], the inhibition at 5 µM is, setting by setting: (read-out: Replicate_1) 2.87%; (read-out: Replicate_2) 3.04%; (read-out: mean) 2.96%.
Molecule `C[N+](C)(C)CCCCCCCCCC[N+](C)(C)C.[Br-].[Br-]` [Decamethonium dibromide] showed a mean (sheet LOPAC_screen_w_protease, LOPAC1280 at 5 µM, mean of two replicates) of 1.23. Moreover, the Replicate_1 (sheet LOPAC_screen_w_protease, LOPAC1280 at 5 µM, replicate 1) turned out to be 2.965. Also, the Replicate_2 (sheet LOPAC_screen_w_protease, LOPAC1280 at 5 µM, replicate 2) is -0.5048.
In the case of `CN(C)[C@@H]1C(O)=C(C(N)=O)C(=O)[C@@]2(O)C(O)=C3C(=O)c4c(O)ccc(Cl)c4[C@@H](O)[C@H]3C[C@@H]12` [Demeclocycline hydrochloride], the inhibition at 5 µM runs as follows: (sheet LOPAC_screen_w_protease, LOPAC1280 primary screen with protease, 5 µM compound, mean of the two replicates, read-out: mean) 4.52%; (sheet LOPAC_screen_w_protease, LOPAC1280 primary screen with protease, 5 µM compound, replicate 1, read-out: Replicate_1) 7.2%; (sheet LOPAC_screen_w_protease, LOPAC1280 primary screen with protease, 5 µM compound, replicate 2, read-out: Replicate_2) 1.84%.
As to `Cc1cc(N)c2ccccc2[n+]1CCCCCCCCCCCCCC[n+]1c(C)cc(N)c2ccccc21.[I-].[I-]` [Dequalinium analog, C-14 linker], the “mean (LOPAC screen with protease)” value under setting [13] is given as 11.1281. Further, the “Replicate_1 (LOPAC screen with protease)” value under setting [14] was determined as 10.1675. For the same molecule, the “Replicate_2 (LOPAC screen with protease)” value under setting [15] amounted to 12.0887.
On to `Cc1cc(N)c2ccccc2[n+]1CCCCCCCCCC[n+]1c(C)cc(N)c2ccccc21` [Dequalinium dichloride], for which the inhibition at 5 µM came out at 2.94% (read-out: Replicate_1), 1.41% (read-out: Replicate_2) and 2.17% (read-out: mean).
For `CNCCCN1c2ccccc2CCc2ccccc21` [Desipramine hydrochloride], the “mean (LOPAC_screen_w_protease)” value turned out to be 1.646. In addition, the inhibition at 5 µM under setting [7] turned out to be 1.71%. Further, the inhibition at 5 µM under setting [8] is 1.58%.
